Results: the NIST ThermoML archive (doi:10.1016/j.jct.2010.12.028)

How the values were obtained:
[1] = xn = mol fraction of the nth substance listed; conditions: 101 kPa, Liquid; for speed of sound: Sing-around technique in a fixed-path interferometer; for mass density: Vibrating tube method
[2] = excess molar enthalpy (molar enthalpy of mixing); xn = mol fraction of the nth substance listed; conditions: 308.15 K, 101 kPa, Liquid, two-drop calorimeter

Cc1cccnc1 [3-methylpyridine] + Cc1ccccc1N
[1]
Conditions	mass density, 298.15 K [kg/m3]	mass density, 303.15 K [kg/m3]	mass density, 308.15 K [kg/m3]	speed of sound, 298.15 K [m/s]	speed of sound, 303.15 K [m/s]	speed of sound, 308.15 K [m/s]
x2 = 0.0447	955.059	950.551	945.98	1433	1413	1393.3
x2 = 0.1132	959.404	954.953	950.452	1446.4	1426.4	1407
x2 = 0.1771	963.134	958.721	954.262	1458.6	1438.8	1419.5
x2 = 0.2069	964.775	960.381	955.934	1464.1	1444.5	1425.1
x2 = 0.2467	966.875	962.502	958.079	1471.5	1451.9	1432.5
x2 = 0.2888	968.994	964.629	960.232	1479.1	1459.8	1440.4
x2 = 0.3112	970.081	965.722	961.335	1483.1	1463.9	1444.3
x2 = 0.3624	972.469	968.119	963.751	1492.2	1473.1	1453.4
x2 = 0.4182	974.916	970.586	966.234	1502	1483	1463.2
x2 = 0.4632	976.799	972.478	968.134	1509.7	1490.6	1470.9
x2 = 0.5336	979.577	975.273	970.94	1521.7	1502.6	1482.7
x2 = 0.5778	981.226	976.931	972.616	1529.2	1509.7	1489.9
x2 = 0.6334	983.223	978.936	974.642	1538.6	1518.8	1499
x2 = 0.6967	985.375	981.112	976.836	1549.2	1528.8	1509.3
x2 = 0.7372	986.701	982.449	978.187	1556	1535.1	1515.8
x2 = 0.8156	989.151	984.927	980.689	1569.5	1547.5	1528.4
x2 = 0.8842	991.171	986.982	982.772	1581.5	1558.4	1539.5
x2 = 0.9711	993.588	989.441	985.272	1597.2	1572.8	1553.6

[2]
Conditions	excess molar enthalpy [kcal/mol]
x2 = 0.0503	-0.0794
x2 = 0.0843	-0.125
x2 = 0.1425	-0.194
x2 = 0.1901	-0.236
x2 = 0.2323	-0.268
x2 = 0.2837	-0.301
x2 = 0.3334	-0.321
x2 = 0.3783	-0.334
x2 = 0.4436	-0.337
x2 = 0.4926	-0.337
x2 = 0.5487	-0.323
x2 = 0.5902	-0.312
x2 = 0.6643	-0.281
x2 = 0.7182	-0.248
x2 = 0.7789	-0.209
x2 = 0.8348	-0.163
x2 = 0.8937	-0.11
